Assay in all cases: biochemical
One experiment concerns the target T1, recombinant human MMP-1 (Homo sapiens, UniProt P03956).
T1 construct: made in house; host or cells: transfected HT-1080 cells (provided by Dr. Harold Welgus, Washington University)
T1 sequence (P03956 100-469): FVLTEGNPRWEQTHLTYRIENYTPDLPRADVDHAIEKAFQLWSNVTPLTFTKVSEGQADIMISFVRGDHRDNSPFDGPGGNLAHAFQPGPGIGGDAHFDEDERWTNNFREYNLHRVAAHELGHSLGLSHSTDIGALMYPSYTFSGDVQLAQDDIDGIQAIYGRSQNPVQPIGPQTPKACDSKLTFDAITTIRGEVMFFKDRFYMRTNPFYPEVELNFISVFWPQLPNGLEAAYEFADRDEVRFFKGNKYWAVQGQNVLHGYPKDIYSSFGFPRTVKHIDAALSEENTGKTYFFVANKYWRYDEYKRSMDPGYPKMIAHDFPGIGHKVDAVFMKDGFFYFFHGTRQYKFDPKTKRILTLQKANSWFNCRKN
The note with it: Inhibition Table B; read-out: MMP-1 IC50.

The next experiment has as its target recombinant human MMP-13 (Homo sapiens, UniProt P45452). Conditions: Inhibition Table B; read-out: MMP-13 IC50.
For another experiment, the target named is T2, recombinant human MMP-2 (Homo sapiens, UniProt P08253).
T2 sequence (P08253 110-660): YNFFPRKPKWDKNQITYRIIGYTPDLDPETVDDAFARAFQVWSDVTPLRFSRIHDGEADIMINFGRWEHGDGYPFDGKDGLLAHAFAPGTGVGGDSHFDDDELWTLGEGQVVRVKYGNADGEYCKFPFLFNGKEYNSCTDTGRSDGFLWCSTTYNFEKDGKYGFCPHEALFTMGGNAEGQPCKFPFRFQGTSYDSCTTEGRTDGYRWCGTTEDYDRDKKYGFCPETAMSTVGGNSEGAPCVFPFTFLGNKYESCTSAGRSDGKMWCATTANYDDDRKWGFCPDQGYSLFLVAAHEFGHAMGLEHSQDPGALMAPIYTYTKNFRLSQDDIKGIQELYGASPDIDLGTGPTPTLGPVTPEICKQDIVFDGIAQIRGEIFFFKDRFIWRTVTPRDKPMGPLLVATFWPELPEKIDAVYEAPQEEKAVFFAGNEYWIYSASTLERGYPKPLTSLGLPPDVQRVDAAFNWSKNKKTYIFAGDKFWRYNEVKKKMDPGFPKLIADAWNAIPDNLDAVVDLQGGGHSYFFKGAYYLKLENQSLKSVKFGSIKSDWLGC
Conditions: Inhibition Table B; read-out: MMP-2 IC50.

Structures are written as SMILES. Structures can show the parent of a compound that is named as a salt. A value given as a limit tells only on which side of the number the result lay.

For `NCCc1ccc(Oc2ccc(S(=O)(=O)C3(C(=O)NO)CCS(=O)(=O)CC3)cc2)cc1` [Example 54, 4-[[4-[4-(2-aminoethyl))-phenoxy]phenyl]sulfonyl]tetrahydro-N-hydroxy-2H-thiopyran-4-carboxamide 1,1-dioxide Monohydrochloride], the half-maximal inhibitory concentration (IC50) (as a rule, the concentration that inhibits the measured activity by half) at recombinant human MMP-1 was greater than 10000 nM; on recombinant human MMP-13 it was 120 nM; at recombinant human MMP-2 it was 60 nM.

`O=C(NOC1CCCCO1)C1(S(=O)(=O)c2ccc(F)cc2)CCOCC1` (stereo not drawn) [Example 55, 4-[(4-fluorophenyl)-sulfonyl]tetrahydro-N-[(tetrahydro-2H-pyran-2-yl)oxy]-2H-pyran-4-carboxamide]: the results for the concentration for half-maximal inhibition (IC50) at recombinant human MMP-1, at recombinant human MMP-13 and on recombinant human MMP-2 were 1200 nM, 0.3 nM and 0.1 nM, respectively.

On to `O=C(NO)C1(S(=O)(=O)c2ccc(Oc3ccc(F)c(F)c3)cc2)CCOCC1` [Example 56, 4-[[4-(3,4-difluorophenoxy)-phenyl]sulfonyl]tetrahydro-N-hydroxy-2H-pyran-4-carboxamide], for which the half-maximal inhibitory concentration (IC50) on recombinant human MMP-1 is 1500 nM; on recombinant human MMP-13, 0.15 nM; on recombinant human MMP-2 it was less than 0.1 nM.

`O=C(NO)C1(S(=O)(=O)c2ccc(Oc3ccc(I)cc3)cc2)CCOCC1` [Example 57, Tetrahydro-N-hydroxy-4-[[4-(4-iodophenoxy)phenyl]sulfonyl]-2H-pyran-4-carboxamide]: the figures for the IC50 on recombinant human MMP-1, at recombinant human MMP-13 and at recombinant human MMP-2 were 1200 nM, 0.2 nM and less than 0.1 nM, respectively.

Regarding `O=C(NO)C1(S(=O)(=O)c2ccc(Oc3cc(F)c(F)cc3F)cc2)CCOCC1` [Example 58, Tetrahydro-N-hydroxy-4-[[4-(2,4,5-trifluorophenoxy)phenyl]-sulfonyl]-2H-pyran-4-carboxamide], the IC50 at recombinant human MMP-1 was greater than 10000 nM; at recombinant human MMP-13 it was 30 nM; at recombinant human MMP-2, 83 nM.

Turning to `O=C(NO)C1(S(=O)(=O)c2ccc(Sc3ccc(Cl)c(Cl)c3)cc2)CCOCC1` [Example 60], the half-inhibitory concentration (IC50) was greater than 10000 nM at recombinant human MMP-1, 147 nM on recombinant human MMP-13 and 64 nM at recombinant human MMP-2.

In the case of `Nc1cc(C(F)(F)F)ccc1Sc1ccc(S(=O)(=O)C2(C(=O)NO)CCOCC2)cc1` [Example 61, 4—[[4-[[2-amino-4-(trifluoromethyl)phenyl]thio]phenyl]-sulfonyl]-tetrahydro-N-hydroxy-2H-pyran-4-carboxamide, Monohydrochloride], the IC50 on recombinant human MMP-1 is greater than 10000 nM; on recombinant human MMP-13 it was 2000 nM; at recombinant human MMP-2, 1500 nM.

In the case of `COc1ccc(Oc2ccc(S(=O)(=O)C3(C(=O)NO)CCOCC3)cc2)cc1` [Example 64], the 50% inhibitory concentration (IC50) on recombinant human MMP-1 was 1470 nM; at recombinant human MMP-13 it was 0.15 nM; on recombinant human MMP-2, less than 0.1 nM.

As for `O=C(NO)C1(S(=O)(=O)c2ccc(F)cc2)CCOCC1` [Example 66, 4-[(4-fluorophenyl)-sulfonyl]tetrahydro-N-hydroxy-2H-pyran-4-carboxamide], the IC50 on recombinant human MMP-1 is greater than 10000 nM; on recombinant human MMP-13, 36000 nM; at recombinant human MMP-2, 4590 nM.

`O=C(NO)C1(S(=O)(=O)c2ccc(OC3CCNCC3)cc2)CCOCC1` [Example 67, tetrahydro-N-hydroxy-4-[[4-(4-piperidinyloxy)phenyllsulfonyl]-2H-pyran-4-carboxamide, Monohydrochloride]: the IC50 on recombinant human MMP-1 amounted to 1600 nM; on recombinant human MMP-13, 268 nM; on recombinant human MMP-2 it was 239 nM.

Regarding `O=C(NO)C1(S(=O)(=O)c2ccc(Oc3ccc(OCc4ccccc4)cc3)cc2)CCOCC1` [Example 72, tetrahydro-N-hydroxy-4-[[4-[4-[(phenylmethyl)oxy]phenoxy]-phenyl]-sulfonyl]-2H-pyran-4-carboxamide], the results for the IC50 at recombinant human MMP-1, at recombinant human MMP-13 and on recombinant human MMP-2 were 2100 nM, 0.3 nM and less than 0.1 nM, respectively.

`O=C(CS(=O)(=O)c1ccc(NC(=O)OCc2ccccc2)cc1)NO` [Example 74, phenylmethyl-[4-[[2-(hydroxyamino)-2-oxoethyl]-sulfonyl]-phenyl]carbamate]: the IC50 at recombinant human MMP-1 was greater than 10000 nM; on recombinant human MMP-13 it was 480 nM; at recombinant human MMP-2, 130 nM.

Take `O=C(CS(=O)(=O)c1ccc(NC(=O)Nc2ccccc2)cc1)NO` [Example 75, N—hydroxy-2-[[4-[[(phenylamino)carbonyl]amino]-phenyl]sulfonyl]acetamide]: the concentration for half-maximal inhibition (IC50) was greater than 10000 nM on recombinant human MMP-1, 900 nM on recombinant human MMP-13 and 60 nM at recombinant human MMP-2.

As to `C=CCN1CCC(C(=O)NO)(S(=O)(=O)c2ccc(Oc3ccc(Cl)c(C)c3)cc2)CC1` [Example 82, 4-[[4-(4-chloro-3-methylphenoxy)phenyljsulfonyl]-N-hydroxy-1-(2-propenyl)-4-piperidinecarboxamide, Monohydrochloride], the concentration for half-maximal inhibition (IC50) at recombinant human MMP-1 was 4000 nM; at recombinant human MMP-13, 0.3 nM; at recombinant human MMP-2, 0.1 nM.

In the case of `O=C(NO)C1(S(=O)(=O)c2ccc(Oc3ccc(F)c(Cl)c3)cc2)CCNCC1` [Example 84, 4-[[4-(3-chloro-4-fluorophenoxy)phenyl]sulfonyl]-N-hydroxy-4-piperidine Carboxamide, Monohydrochloride], the values for the half-maximal inhibitory concentration (IC50) at recombinant human MMP-1, at recombinant human MMP-13 and at recombinant human MMP-2 were 8000 nM, 2.5 nM and 1.8 nM, respectively.

Turning to `O=C(NO)C1(S(=O)(=O)c2ccc(Sc3ccccc3)cc2)CCNCC1` [Example 86, 4-[[4-(phenylthio)-phenyl]-sulfonyl]-N-hydroxy-4-piperidine-carboxamide, Monohydrochloride], the half-maximal inhibitory concentration (IC50) was greater than 10000 nM on recombinant human MMP-1, 3.5 nM on recombinant human MMP-13 and 2.5 nM at recombinant human MMP-2.

For `CC(C)NC(=O)N1CCC(C(=O)NO)(S(=O)(=O)c2ccc(Oc3ccc(Cl)cc3)cc2)CC1` [Example 90, 4-[[4-(4-chlorophenoxy)-phenyl]sulfonyl]-N^4-hydroxy-N^1-(1-methylethyl)-1,4-piperidine Dicarboxamide], the IC50 at recombinant human MMP-1 is 1200 nM; on recombinant human MMP-13, 0.1 nM; on recombinant human MMP-2 it was 0.1 nM.

In the case of `CN(c1ccccc1)c1ccc(S(=O)(=O)C2(C(=O)NO)CCNCC2)cc1` [Example 92, N-hydroxy-4-[[4-(methylphenylamino)phenyl]sulfonyl]-4-piperidinecarboxamide, Monohydrochloride], the IC50 on recombinant human MMP-1 was greater than 10000 nM; on recombinant human MMP-13, 2430 nM; at recombinant human MMP-2 it was 1800 nM.

With `Cc1ccc(Oc2ccc(S(=O)(=O)C3(C(=O)NO)CCOCC3)cc2)cn1` [Example 97, Tetrahydro-N-hydroxy-4-[[4-[(6-methyl-3-pyridinyl)oxy]phenyl]-sulfonyl]-2H-pyran-4-carboxamide, Monohydrochloride], the IC50 at recombinant human MMP-1 amounted to 4000 nM; at recombinant human MMP-13, 16.7 nM; on recombinant human MMP-2 it was 8.2 nM.

On to `Cc1cccc(Oc2ccc(S(=O)(=O)C3(C(=O)NO)CCOCC3)cc2)n1` [Example 98, Tetrahydro-N-hydroxy-4-[[4-[(6-methyl-2—pyridinyl)oxy]phenyl]-sulfonyl]-2H-pyran-4-carboxamide], for which the IC50 at recombinant human MMP-1 was greater than 10000 nM; at recombinant human MMP-13 it was 23.4 nM; on recombinant human MMP-2, 37 nM.

Take `COC(=O)CCc1ccc(Oc2ccc(S(=O)(=O)C3(C(=O)NO)CCOCC3)cc2)cc1` [Example 102, methyl 4-[4-[(tetrahydro-4-[(hydroxyamino)carbonyl]-2H-pyran-4-yl]sulfonyl]-phenoxy]benzenepropanoate]: the half-inhibitory concentration (IC50) at recombinant human MMP-1 is 2000 nM; at recombinant human MMP-13, 0.2 nM; on recombinant human MMP-2 it was less than 0.1 nM.

Values taken from patent US20010039287A1, “AROMATIC SULFONE HYDROXAMIC ACID METALLOPROTEASE INHIBITOR” (priority 1997, published 2001).
